{"source": "patent US4536510A", "about": "“Method of antagonizing the effects of thromboxane” (Smith Kline Beckman Corporation, priority 1983, dated 1985)", "key": {"[1]": {"tested_on": "canine bronchoconstriction induced by U-44069", "test": "Protection in a drug-induced (U-44069) canine bronchospasm", "assay_type": "in vivo, mongrel dogs", "details": "for Decrease in ability of lungs to expand easily / Increase in resistance to movement of air into the lungs: anesthetized dogs", "description": "Bronchopulmonary responses to these agents were measured by computer analyses in 5 spontaneously breathing, anesthetized mongrel dogs. In a dose range of 0.3-3.0 μg/kg i.v., the endoperoxide analog produced dose-related alterations in pulmonary airway resistance, dynamic lung compliance, expiratory airflow rate, tidal volume and respiratory frequency. […] Inhibition by Compound I occurred in all pulmonary parameters calculated."}, "[2]": {"tested_on": "human platelet aggregation", "test": "Inhibition of human platelet aggregation in platelet-rich plasma", "assay_type": "cell-based", "description": "Platelet-rich plasma (PRP) and platelet-poor plasma (PPP) are prepared from citrated blood of drug-free human volunteers and are stored at room temperature for at least 30 minutes before use. Each PRP sample is preincubated two minutes at 37° C. prior to addition of N,N-bis[7-(3-chlorobenzeneaminosulfonyl)-1,2,3,4-tetrahydroisoquinolyl]disulfonylimide (Compound I) or agonists; Compound I is preincubated for 1 minute prior to addition of agonist. A dose response is determined for each agonist, and a concentration which gives a biphasic response is selected. Compounds are tested for inhibition of the response (control response) generated by this agonist concentration. A time is selected, and the height at which the various curves intersect this time line is measured and expressed in mm (a measure of light transmittance). The difference between the response of the control and that with inhibitor present is used to calculate percent inhibition. This value is plotted against inhibitor concentrations to determine the IC50 (the inhibitory concentration of Compound I which inhibits aggregation by 50%)."}, "[3]": {"tested_on": "isolated guinea pig tracheas", "test": "Antagonism of contractions elicited by carbocyclic thromboxane A2 (CTA2), trachea", "details": "for contractile response (mg tension): trachea, Compound I 1×10^-5 M, 30 min", "description": "(§1) Isolated guinea pig tracheas or paired lung parenchymal strips were attached via silk suture to force displacement transducers for recording changes in isometric tension. The tissues were equilibrated for one hour in modified Krebs' buffer at 37.5° C. and aerated with 95% O2 /5% CO2. Then, the tissues were equilibrated for 30 additional minutes with N,N'-bis[7-(3-chlorobenzeneaminosulfonyl)-1,2,3,4-tetrahydroisoquinolyl]disulfonylimide (Compound I) (1×10^-5 M) or buffer. Contraction of the tissues was then elicited by increasing the bath concentration of CTA2 in a cumulative fashion. The contractile responses were recorded as changes in mg tension."}, "[4]": {"tested_on": "isolated guinea pig lung parenchymal strips", "test": "Antagonism of contractions elicited by carbocyclic thromboxane A2 (CTA2), lung parenchymal strips", "details": "for contractile response (mg tension): lung parenchyma, Compound I 1×10^-5 M, 30 min", "description": "as §1"}, "[5]": {"details": "pretreat with Compound I 5 mg/kg i.v., then U-44069 0.3 μg/kg i.v."}, "[6]": {"details": "pretreat with Compound I 5 mg/kg i.v., then U-44069 1.0 μg/kg i.v."}, "[7]": {"details": "pretreat with Compound I 5 mg/kg i.v., then U-44069 3.0 μg/kg i.v."}}, "note": "Like-named read-outs stand apart in the source and are kept apart here."}
{"smiles": "CCCCC[C@H](O)/C=C/[C@H]1[C@@H]2CO[C@@H](C2)[C@@H]1C/C=C\\CCCC(=O)O", "note": "[Compound U-44069, reference compound]", "values": [{"measurement": "Decrease in ability of lungs to expand easily", "setting": "[1]; U-44069 alone 0.3 μg/kg i.v.", "result": 28, "unit": "%"}, {"measurement": "Increase in resistance to movement of air into the lungs", "setting": "[1]; U-44069 alone 0.3 μg/kg i.v.", "result": 67, "unit": "%"}, {"measurement": "Decrease in ability of lungs to expand easily", "setting": "[1]; U-44069 alone 1.0 μg/kg i.v.", "result": 56, "unit": "%"}, {"measurement": "Increase in resistance to movement of air into the lungs", "setting": "[1]; U-44069 alone 1.0 μg/kg i.v.", "result": 333, "unit": "%"}, {"measurement": "Decrease in ability of lungs to expand easily", "setting": "[1]; U-44069 alone 3.0 μg/kg i.v.", "result": 70, "unit": "%"}, {"measurement": "Increase in resistance to movement of air into the lungs", "setting": "[1]; U-44069 alone 3.0 μg/kg i.v.", "result": 549, "unit": "%"}]}
{"smiles": "O=S(=O)(Nc1cccc(Cl)c1)c1ccc2c(c1)CN(S(=O)(=O)NS(=O)(=O)N1CCc3ccc(S(=O)(=O)Nc4cccc(Cl)c4)cc3C1)CC2", "note": "[Compound I, N,N'-bis[7-(3-chlorobenzeneaminosulfonyl)-1,2,3,4-tetrahydroisoquinolyl]disulfonylimide]", "values": [{"measurement": "Decrease in ability of lungs to expand easily", "setting": "[1]; [5]", "result": 5, "unit": "%"}, {"measurement": "Increase in resistance to movement of air into the lungs", "setting": "[1]; [5]", "result": 14, "unit": "%"}, {"measurement": "Decrease in ability of lungs to expand easily", "setting": "[1]; [6]", "result": 13, "unit": "%"}, {"measurement": "Increase in resistance to movement of air into the lungs", "setting": "[1]; [6]", "result": 30, "unit": "%"}, {"measurement": "Decrease in ability of lungs to expand easily", "setting": "[1]; [7]", "result": 28, "unit": "%"}, {"measurement": "Increase in resistance to movement of air into the lungs", "setting": "[1]; [7]", "result": 56, "unit": "%"}, {"measurement": "effect on U-44069-induced bronchospasm (all pulmonary parameters)", "setting": "[1]; pretreatment with Compound I 5.0 mg/kg i.v., shift to the right of the control U-44069 curve", "result": "inhibition of the bronchospasm"}, {"measurement": "IC50", "setting": "[2]; agonist A23187, human PRP, read-out: IC50, inhibition of secondary phase", "result": 12, "unit": "µM"}, {"measurement": "IC50", "setting": "[2]; agonist Platelet Activating Factor (PAF), human PRP, read-out: IC50, inhibition of secondary phase", "result": 4.5, "unit": "µM"}, {"measurement": "IC50", "setting": "[2]; agonist U-44069, human PRP, read-out: IC50, inhibition of primary phase", "result": 2.5, "unit": "µM"}, {"measurement": "IC50", "setting": "[2]; agonist U-44069, human PRP, read-out: IC50, inhibition of secondary phase", "result": 1.7, "unit": "µM"}, {"measurement": "IC50", "setting": "[2]; agonist arachidonic acid, human PRP, read-out: IC50, inhibition of primary phase", "result": 19, "unit": "µM"}, {"measurement": "IC50", "setting": "[2]; agonist collagen, human PRP, read-out: IC50, inhibition of primary phase", "result": 10, "unit": "µM"}, {"measurement": "response to challenge with reference contractile agonist", "setting": "[3]; trachea receiving Compound I, 1 × 10^-5 M carbachol", "result": "responded normally"}, {"measurement": "contractile response (mg tension)", "setting": "[3]; CTA2 10^-6 M, control 360.0 ± 89.8", "result": "42.9 ± 20.2", "unit": "mg tension"}, {"measurement": "contractile response (mg tension)", "setting": "[3]; CTA2 10^-7 M, control 125.0 ± 33.5", "result": 0, "unit": "mg tension"}, {"measurement": "contractile response (mg tension)", "setting": "[3]; CTA2 10^-8 M, control 0", "result": 0, "unit": "mg tension"}, {"measurement": "response to challenge with reference contractile agonist", "setting": "[4]; lung parenchyma receiving Compound I, 1 × 10^-3 M histamine", "result": "responded normally"}, {"measurement": "contractile response (mg tension)", "setting": "[4]; CTA2 10^-6 M, control 181.5 ± 23.3", "result": 0, "unit": "mg tension"}, {"measurement": "contractile response (mg tension)", "setting": "[4]; CTA2 10^-7 M, control 103.5 ± 23.7", "result": 0, "unit": "mg tension"}, {"measurement": "contractile response (mg tension)", "setting": "[4]; CTA2 10^-8 M, control 45.5 ± 11.4", "result": 0, "unit": "mg tension"}]}
